# Reference: patent US9695155B2, “Herbicidal substituted pyrimidinyloxy benzene compounds” (E. I. DU PONT DE NEMOURS AND COMPANY, priority 2013, dated 2017)
# What was measured:
# Experiment in all cases: Test E preemergence
# green foxtail = format: in vivo, Setaria viridis; settings: for Foxtail, Green plant response rating: scale 0 to 100 (0 no effect, 100 complete control)
# Procedure, shortened: (§1)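 Test chemicals formulated in a non-phytotoxic solvent mixture containing a surfactant were applied preemergence to seeds in silt loam soil or postemergence to plants at the 1- to 4-leaf stage in potting mix. After 14 to 21 days in a greenhouse, injury was visually rated against controls on a 0-100 scale (0 = no effect, 100 = complete control).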
# waterhemp = format: in vivo, Amaranthus rudis; settings: for Waterhemp plant response rating: scale 0 to 100 (0 no effect, 100 complete control)
# Excerpt: (§2) Seeds of plant species selected from corn (Zea mays), soybean (Glycine max), velvetleaf (Abutilon theophrasti), lambsquarters (Chenopodium album), wild poinsettia (Euphorbia heterophylla), palmer pigweed (Amaranthus palmeri), waterhemp (common waterhemp, Amaranthus rudis), surinam grass (Brachiaria decumbens), large (Lg) crabgrass (Digitaria sanguinalis), Brazilian crabgrass (Digitaria horizontalis), fall panicum (Panicum dichotomiflorum), giant foxtail (Setaria faberii), green foxtail (Setaria viridis), goosegrass (Eleusine indica), johnsongrass (Sorghum halepense), ragweed (common ragweed, Ambrosia elatior), barnyardgrass (Echinochloa crus-galli), sandbur (southern sandbur, Cenchrus echinatus), arrowleaf sida (Sida rhombifolia), Italian ryegrass (Lolium multiflorum), dayflower (Virginia (VA) dayflower, Commelina virginica), field bindweed (Convolvulus arvensis), morningglory (Ipomoea coccinea), nightshade (eastern black nightshade, Solanum ptycanthum), kochia (Kochia scoparia), yellow nutsedge (Cyperus esculentus), cocklebur (common cocklebur, Xanthium strumarium), smartweed (ladysthumb smartweed, and hairy beggarticks (Bidens pilosa), were planted into a silt loam soil and treated preemergence with test chemicals formulated in a non-phytotoxic solvent mixture which included a surfactant.
# (§3) At the same time, plants from these crop and weed species and also horseweed (Canada horseweed, Conyza canadensis), waterhemp_RES1, (ALS & Triazine resistant common waterhemp, Amaranthus rudis), and waterhemp_RES2, (ALS & HPPD resistant common waterhemp, Amaranthus rudis) were planted in pots containing Redi-Earth® planting medium (Scotts Company, 14111 Scottslawn Road, Marysville, Ohio 43041) comprising spaghnum peat moss, vermiculite, wetting agent and starter nutrients were treated with postemergence applications of test chemicals formulated in the same manner. Plants ranged in height from 2 to 18 cm for postemergence treatments (1- to 4-leaf stage). Treated plants and controls were maintained in a greenhouse for 14 to 21 days, after which time all species were compared to controls and visually evaluated. Plant response ratings, summarized in Table E, are based on a scale of 0 to 100 where 0 is no effect and 100 is complete control. A dash (-) response means no test result.
# kochia = format: in vivo, Kochia scoparia; settings: for Kochia plant response rating: scale 0 to 100 (0 no effect, 100 complete control)
# Procedure, shortened: as §1
# nightshade = format: in vivo, Solanum ptycanthum; settings: for Nightshade plant response rating: scale 0 to 100 (0 no effect, 100 complete control)
# Procedure, shortened: as §1
# barnyardgrass = format: in vivo, Echinochloa crus-galli; settings: preemergence; for Barnyardgrass plant response rating: scale 0 to 100 (0 no effect, 100 complete control)
# Excerpt: as §2, §3
# ragweed = format: in vivo, Ambrosia elatior; settings: for Ragweed plant response rating: scale 0 to 100 (0 no effect, 100 complete control)
# Procedure, shortened: as §1
# sandbur = format: in vivo, Cenchrus echinatus; settings: for Sandbur plant response rating: scale 0 to 100 (0 no effect, 100 complete control)
# Excerpt: as §2, §3
# surinam grass = format: in vivo, Brachiaria decumbens; settings: for Surinam Grass plant response rating: scale 0 to 100 (0 no effect, 100 complete control)
# Excerpt: as §2, §3
# giant foxtail = format: in vivo, Setaria faberii; settings: for Foxtail, Giant plant response rating: scale 0 to 100 (0 no effect, 100 complete control)
# Procedure, shortened: as §1
# Italian ryegrass = format: in vivo, Lolium multiflorum; settings: for Ryegrass, Italian plant response rating: scale 0 to 100 (0 no effect, 100 complete control)
# Procedure, shortened: as §1
# goosegrass = format: in vivo, Eleusine indica; settings: for Goosegrass plant response rating: scale 0 to 100 (0 no effect, 100 complete control)
# Procedure, shortened: as §1
# fall panicum = format: in vivo, Panicum dichotomiflorum; settings: for Panicum, Fall plant response rating: scale 0 to 100 (0 no effect, 100 complete control)
# Excerpt: as §2, §3
# [1] = 8 g ai/ha, scale 0 to 100, 0 is no effect, 100 is complete control
# [2] = 125 g ai/ha, scale 0 to 100, 0 no effect, 100 complete control
# [3] = 250 g ai/ha, scale 0 to 100, 0 no effect, 100 complete control
smiles,measurement,setting,value
FC(F)c1cccc(Oc2ncc(Cl)cn2)c1-n1cc(C(F)(F)F)cn1 [Compound 170],"Plant response rating, Foxtail, Green",green foxtail; [1],0
same,"Foxtail, Green plant response rating",green foxtail; 16 g ai/ha,0
same,"Foxtail, Green plant response rating",green foxtail; 31 g ai/ha,40
same,"Foxtail, Green plant response rating",green foxtail; 62 g ai/ha,90
same,"Plant response rating, Foxtail, Green",green foxtail; [2],100
same,"Plant response rating, Waterhemp",waterhemp; [1],0
same,Waterhemp plant response rating,waterhemp; 31 g ai/ha,80
same,Waterhemp plant response rating,waterhemp; 62 g ai/ha,90
same,"Plant response rating, Waterhemp",waterhemp; [2],80
same,"Plant response rating, Kochia",kochia; [1],0
same,Kochia plant response rating,kochia; 31 g ai/ha,30
same,Kochia plant response rating,kochia; 62 g ai/ha,90
same,"Plant response rating, Kochia",kochia; [2],98
same,"Plant response rating, Nightshade",nightshade; [1],0
same,Nightshade plant response rating,nightshade; 31 g ai/ha,50
same,Nightshade plant response rating,nightshade; 62 g ai/ha,98
same,"Plant response rating, Nightshade",nightshade; [2],98
same,"Plant response rating, Barnyardgrass",barnyardgrass; [1],0
same,Barnyardgrass plant response rating,barnyardgrass; 16 g ai/ha,0
same,Barnyardgrass plant response rating,barnyardgrass; 31 g ai/ha,0
same,Barnyardgrass plant response rating,barnyardgrass; 62 g ai/ha,35
same,"Plant response rating, Barnyardgrass",barnyardgrass; [2],75
same,"Plant response rating, Ragweed",ragweed; [1],0
same,Ragweed plant response rating,ragweed; 31 g ai/ha,0
same,Ragweed plant response rating,ragweed; 62 g ai/ha,5
same,"Plant response rating, Ragweed",ragweed; [2],35
same,"Plant response rating, Sandbur",sandbur; [1],0
same,Sandbur plant response rating,sandbur; 31 g ai/ha,0
same,Sandbur plant response rating,sandbur; 62 g ai/ha,30
same,"Plant response rating, Sandbur",sandbur; [2],35
same,"Plant response rating, Surinam Grass",surinam grass; [1],0
same,Surinam Grass plant response rating,surinam grass; 31 g ai/ha,0
same,Surinam Grass plant response rating,surinam grass; 62 g ai/ha,15
same,"Plant response rating, Surinam Grass",surinam grass; [2],25
same,"Plant response rating, Foxtail, Giant",giant foxtail; [1],0
same,"Foxtail, Giant plant response rating",giant foxtail; 16 g ai/ha,0
same,"Foxtail, Giant plant response rating",giant foxtail; 31 g ai/ha,25
same,"Foxtail, Giant plant response rating",giant foxtail; 62 g ai/ha,100
same,"Plant response rating, Foxtail, Giant",giant foxtail; [2],100
same,"Plant response rating, Ryegrass, Italian",Italian ryegrass; [1],0
same,"Ryegrass, Italian plant response rating",Italian ryegrass; 31 g ai/ha,20
same,"Ryegrass, Italian plant response rating",Italian ryegrass; 62 g ai/ha,35
same,"Plant response rating, Ryegrass, Italian",Italian ryegrass; [2],70
same,"Plant response rating, Goosegrass",goosegrass; [1],0
same,Goosegrass plant response rating,goosegrass; 31 g ai/ha,40
same,Goosegrass plant response rating,goosegrass; 62 g ai/ha,75
same,"Plant response rating, Goosegrass",goosegrass; [2],98
same,"Plant response rating, Panicum, Fall",fall panicum; [1],0
same,"Panicum, Fall plant response rating",fall panicum; 31 g ai/ha,20
same,"Panicum, Fall plant response rating",fall panicum; 62 g ai/ha,98
same,"Plant response rating, Panicum, Fall",fall panicum; [2],100
Cc1cnc(Oc2cccc(C#N)c2-n2cc(C(F)(F)F)cn2)nc1 [Compound 180],"Foxtail, Green plant response rating",green foxtail; 31 g ai/ha,65
same,"Foxtail, Green plant response rating",green foxtail; 62 g ai/ha,100
same,"Plant response rating, Foxtail, Green",green foxtail; [2],100
same,"Plant response rating, Foxtail, Green",green foxtail; [3],100
same,Waterhemp plant response rating,waterhemp; 31 g ai/ha,98
same,Waterhemp plant response rating,waterhemp; 62 g ai/ha,98
same,"Plant response rating, Waterhemp",waterhemp; [2],100
same,"Plant response rating, Waterhemp",waterhemp; [3],100
same,Kochia plant response rating,kochia; 31 g ai/ha,0
same,Kochia plant response rating,kochia; 62 g ai/ha,20
same,"Plant response rating, Kochia",kochia; [2],100
same,"Plant response rating, Kochia",kochia; [3],100
same,Nightshade plant response rating,nightshade; 31 g ai/ha,75
same,Nightshade plant response rating,nightshade; 62 g ai/ha,98
same,"Plant response rating, Nightshade",nightshade; [2],98
same,"Plant response rating, Nightshade",nightshade; [3],100
same,Barnyardgrass plant response rating,barnyardgrass; 31 g ai/ha,20
same,Barnyardgrass plant response rating,barnyardgrass; 62 g ai/ha,98
same,"Plant response rating, Barnyardgrass",barnyardgrass; [2],100
same,"Plant response rating, Barnyardgrass",barnyardgrass; [3],100
same,Ragweed plant response rating,ragweed; 31 g ai/ha,70
same,Ragweed plant response rating,ragweed; 62 g ai/ha,90
same,"Plant response rating, Ragweed",ragweed; [2],100
same,"Plant response rating, Ragweed",ragweed; [3],100
same,Sandbur plant response rating,sandbur; 31 g ai/ha,0
same,Sandbur plant response rating,sandbur; 62 g ai/ha,20
same,"Plant response rating, Sandbur",sandbur; [2],75
same,"Plant response rating, Sandbur",sandbur; [3],90
same,Surinam Grass plant response rating,surinam grass; 31 g ai/ha,10
same,Surinam Grass plant response rating,surinam grass; 62 g ai/ha,25
same,"Plant response rating, Surinam Grass",surinam grass; [2],75
same,"Plant response rating, Surinam Grass",surinam grass; [3],100
same,"Foxtail, Giant plant response rating",giant foxtail; 31 g ai/ha,75
same,"Foxtail, Giant plant response rating",giant foxtail; 62 g ai/ha,100
same,"Plant response rating, Foxtail, Giant",giant foxtail; [2],100
same,"Plant response rating, Foxtail, Giant",giant foxtail; [3],100
same,"Ryegrass, Italian plant response rating",Italian ryegrass; 31 g ai/ha,0
same,"Ryegrass, Italian plant response rating",Italian ryegrass; 62 g ai/ha,0
same,"Plant response rating, Ryegrass, Italian",Italian ryegrass; [2],30
same,"Plant response rating, Ryegrass, Italian",Italian ryegrass; [3],70
same,Goosegrass plant response rating,goosegrass; 31 g ai/ha,70
same,Goosegrass plant response rating,goosegrass; 62 g ai/ha,90
same,"Plant response rating, Goosegrass",goosegrass; [2],98
same,"Plant response rating, Goosegrass",goosegrass; [3],100
same,"Panicum, Fall plant response rating",fall panicum; 31 g ai/ha,95
same,"Panicum, Fall plant response rating",fall panicum; 62 g ai/ha,100
same,"Plant response rating, Panicum, Fall",fall panicum; [2],100
same,"Plant response rating, Panicum, Fall",fall panicum; [3],100
NC(=S)c1cccc(Oc2ncc(Cl)cn2)c1-n1cc(Cl)cn1 [Compound 292],"Plant response rating, Foxtail, Green",green foxtail; [1],0
same,"Foxtail, Green plant response rating",green foxtail; 16 g ai/ha,0
same,"Foxtail, Green plant response rating",green foxtail; 31 g ai/ha,10
same,"Foxtail, Green plant response rating",green foxtail; 62 g ai/ha,25
same,"Plant response rating, Foxtail, Green",green foxtail; [2],75
same,"Plant response rating, Waterhemp",waterhemp; [1],0
same,Waterhemp plant response rating,waterhemp; 31 g ai/ha,20
same,Waterhemp plant response rating,waterhemp; 62 g ai/ha,80
same,"Plant response rating, Waterhemp",waterhemp; [2],100
same,"Plant response rating, Kochia",kochia; [1],0
same,Kochia plant response rating,kochia; 31 g ai/ha,0
same,Kochia plant response rating,kochia; 62 g ai/ha,70
same,"Plant response rating, Kochia",kochia; [2],98
same,"Plant response rating, Nightshade",nightshade; [1],0
same,Nightshade plant response rating,nightshade; 31 g ai/ha,5
same,Nightshade plant response rating,nightshade; 62 g ai/ha,70
same,"Plant response rating, Nightshade",nightshade; [2],80
same,"Plant response rating, Barnyardgrass",barnyardgrass; [1],0
same,Barnyardgrass plant response rating,barnyardgrass; 16 g ai/ha,0
same,Barnyardgrass plant response rating,barnyardgrass; 31 g ai/ha,0
same,Barnyardgrass plant response rating,barnyardgrass; 62 g ai/ha,0
same,"Plant response rating, Barnyardgrass",barnyardgrass; [2],40
same,"Plant response rating, Ragweed",ragweed; [1],0
same,Ragweed plant response rating,ragweed; 31 g ai/ha,0
same,Ragweed plant response rating,ragweed; 62 g ai/ha,0
same,"Plant response rating, Ragweed",ragweed; [2],35
same,"Plant response rating, Sandbur",sandbur; [1],0
same,Sandbur plant response rating,sandbur; 31 g ai/ha,20
same,Sandbur plant response rating,sandbur; 62 g ai/ha,0
same,"Plant response rating, Sandbur",sandbur; [2],35
same,"Plant response rating, Surinam Grass",surinam grass; [1],0
same,Surinam Grass plant response rating,surinam grass; 31 g ai/ha,0
same,Surinam Grass plant response rating,surinam grass; 62 g ai/ha,10
same,"Plant response rating, Surinam Grass",surinam grass; [2],20
same,"Plant response rating, Foxtail, Giant",giant foxtail; [1],0
same,"Foxtail, Giant plant response rating",giant foxtail; 16 g ai/ha,0
same,"Foxtail, Giant plant response rating",giant foxtail; 31 g ai/ha,5
same,"Foxtail, Giant plant response rating",giant foxtail; 62 g ai/ha,80
same,"Plant response rating, Foxtail, Giant",giant foxtail; [2],95
same,"Plant response rating, Ryegrass, Italian",Italian ryegrass; [1],0
same,"Ryegrass, Italian plant response rating",Italian ryegrass; 31 g ai/ha,0
same,"Ryegrass, Italian plant response rating",Italian ryegrass; 62 g ai/ha,0
same,"Plant response rating, Ryegrass, Italian",Italian ryegrass; [2],35
same,"Plant response rating, Goosegrass",goosegrass; [1],0
same,Goosegrass plant response rating,goosegrass; 31 g ai/ha,20
same,Goosegrass plant response rating,goosegrass; 62 g ai/ha,50
same,"Plant response rating, Goosegrass",goosegrass; [2],70
same,"Plant response rating, Panicum, Fall",fall panicum; [1],0
same,"Panicum, Fall plant response rating",fall panicum; 31 g ai/ha,0
same,"Panicum, Fall plant response rating",fall panicum; 62 g ai/ha,90
same,"Plant response rating, Panicum, Fall",fall panicum; [2],100
